Results published in patent US4224329A, “2-Substitute d-trans-5-aryl-2,3,4,4a,5,9b-hexahydro-1H-pyrido[4,3-b]indoles” (Pfizer Inc., priority 1979, dated 1980).
Where a name gives a salt, the structure may show the parent alone. Read-outs that look alike come from different tables or passages of the source.

How the values were obtained:
Amphetamine Stereotypy = test: Antagonism of Amphetamine Stereotypy in Rats (ED50 for blocking characteristic amphetamine cage movement); assay type: in vivo; conditions: for ED50: Rattus norvegicus; for ED50, 24 Hrs.: 1440 min; for ED50, 48 Hrs.: 2880 min; for ED50, 72 Hrs.: 4320 min
Description: The effects of the compounds of the present invention on prominent amphetamine-induced symptoms were studied in rats by a rating scale modeled after the one reported by Quinton and Halliwell, and Weissman. Groups of five rats were placed in a covered plastic cage measuring approximately 26 cm.×42 cm.×16 cm. […] They were then treated 1, 5 and 24 hrs. later with d-amphetamine sulfate, 5 mg./kg. intraperitoneally (i.p.). […] On the basis of dose-response data after amphetamine it was possible to determine the effective dose of the compound necessary to antagonize or block the characteristic amphetamine behavior of cage movement for fifty percent of the rats tested (ED50). The time of rating chosen coincides with the peak action of amphetamine which is 60-80 min. after treatment with this agent.
Employing the above-described procedure, the following 4a,9b-trans compounds were tested for their ability to block the behavior effects of amphetamine, the results being reported as the ED50 in mg./kg. at the indicated times: [drawing 30]
A. The following results were obtained on the mixture of diastereomers for those compounds wherein R contains a secondary alcohol group and on the single diastereomer of the other 4a, 9b-trans hexahydro-pyrido-indoles.
B. The results of tests in which compounds of the invention reported in Part A, above are compared with the corresponding δ-substituted-5-aryl-1,2,3,4-tetrahydropyrido[4,3-b]indoles of U.S. Pat. No. 4,001,263 are summarized below. For each pair the results obtained on the prior art compound (a) are given first and the results for the compound of the invention (b) are given second. Where indicated the test compound was also administered orally (p.o.) and tests were carried out for 48 hours.
C. […] In each case the compounds are of the formula
The tests were carried out for 72 hours.

dopamine receptors = dopamine receptors (Rattus norvegicus, UniProt P61169); test: Inhibition of 3H-Spiroperidol Binding to Dopamine Receptors (rat corpus striatum); design: species or system rats (Sprague-Dawley CD males); conditions: 0.5 nM 3H-spiroperidol, 10 minutes at 37° C.
[1] = ip, 1 h, i.p., Part B, read-out: ED50, 1 Hr.
[2] = ip, 5 h, i.p., Part B, read-out: ED50, 5 Hrs.
[3] = ip, 24 h, i.p., Part B, read-out: ED50, 24 Hrs.
[4] = sc, 1 h, s.c., Part A, read-out: ED50, 1 Hr.
[5] = sc, 5 h, s.c., Part A, read-out: ED50, 5 Hr.
[6] = sc, 24 h, s.c., Part A, read-out: ED50, 24 Hrs.
[7] = po, 1 h, p.o., Part B, read-out: ED50, 1 Hr.
[8] = po, 5 h, p.o., Part B, read-out: ED50, 5 Hrs.
[9] = po, 24 h, p.o., Part B, read-out: ED50, 24 Hrs.
[10] = sc, 1 h, s.c., Part C, isomers of Examples 13 and 14, read-out: ED50, 1 Hr.
[11] = sc, 5 h, s.c., Part C, isomers of Examples 13 and 14, read-out: ED50, 5 Hrs.
[12] = sc, 24 h, s.c., Part C, isomers of Examples 13 and 14, read-out: ED50, 24 Hrs.
[13] = s.c., Part C, isomers of Examples 13 and 14, hydrochloride
[14] = s.c., Part D, enantiomers by synthesis of Example 21, hydrochloride

Sequence of dopamine receptors (P61169 whole entry): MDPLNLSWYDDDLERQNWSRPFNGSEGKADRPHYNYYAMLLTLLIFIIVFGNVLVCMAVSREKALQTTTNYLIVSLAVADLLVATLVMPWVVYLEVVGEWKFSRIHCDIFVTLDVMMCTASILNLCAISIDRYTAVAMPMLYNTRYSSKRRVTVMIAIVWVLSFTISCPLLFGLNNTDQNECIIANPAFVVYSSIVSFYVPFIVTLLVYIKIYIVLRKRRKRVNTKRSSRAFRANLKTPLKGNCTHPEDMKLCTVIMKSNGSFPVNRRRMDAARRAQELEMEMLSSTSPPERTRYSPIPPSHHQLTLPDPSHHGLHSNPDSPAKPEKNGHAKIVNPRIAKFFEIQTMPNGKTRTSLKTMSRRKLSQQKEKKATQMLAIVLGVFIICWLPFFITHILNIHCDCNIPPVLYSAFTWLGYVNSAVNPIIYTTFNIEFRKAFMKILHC

| Compound | ED50 (Amphetamine Stereotypy; [1]) | ED50 (Amphetamine Stereotypy; [2]) | ED50 (Amphetamine Stereotypy; [3]) | ED50 (Amphetamine Stereotypy; [4]) | ED50 (Amphetamine Stereotypy; [5]) | ED50 (Amphetamine Stereotypy; [6]) | further results |
| --- | --- | --- | --- | --- | --- | --- | --- |
| OC(CCCN1CC[C@H]2[C@H](C1)c1ccccc1N2c1ccccc1)c1ccccc1 (relative stereo) | 0.032 to 0.1 mg/kg | 0.032 to 0.1 mg/kg | 0.1 to 0.32 mg/kg | 0.032 to 0.1 mg/kg | 0.032 to 0.1 mg/kg | 0.1 to 0.32 mg/kg | – |
| OC(CCCN1CC[C@H]2[C@H](C1)c1ccccc1N2c1ccccc1)c1ccc(F)cc1 (relative stereo) | – | – | – | 0.1 to 0.32 mg/kg | 0.1 to 0.32 mg/kg | 0.1 to 0.32 mg/kg | – |
| O=C(CCCN1CC[C@H]2[C@H](C1)c1ccccc1N2c1ccccc1)c1ccc(F)cc1 (relative stereo) | – | – | – | ~0.32 mg/kg | 0.1 to 0.32 mg/kg | ~0.32 mg/kg | – |
| OC(CCCN1CC[C@H]2[C@H](C1)c1cc(F)ccc1N2c1ccc(F)cc1)c1ccccc1 (relative stereo) | – | – | – | 0.1 to 0.32 mg/kg | 0.1 to 0.32 mg/kg | < 0.32 mg/kg | – |
| O=C(CCCN1CC[C@H]2[C@H](C1)c1cc(F)ccc1N2c1ccc(F)cc1)c1ccc(F)cc1 (relative stereo) | < 1 mg/kg | < 1 mg/kg | < 1 mg/kg | < 1 mg/kg | < 1 mg/kg | < 1 mg/kg | – |
| c1ccc(CCCN2CC[C@H]3[C@H](C2)c2ccccc2N3c2ccccc2)cc1 (relative stereo) [R = C6 H5 (CH2)3, reference compound] | – | – | – | 3.2 to 10 mg/kg | 3.2 to 10 mg/kg | > 10 mg/kg | – |
| c1ccc(CN2CC[C@H]3[C@H](C2)c2ccccc2N3c2ccccc2)cc1 (relative stereo) [R = C6 H5 CH2, dl-trans-2-benzyl-2,3,4,4a,5,9b-hexahydro-5-phenyl-1H-pyrido[4,3-b]indole Hydrochloride, reference compound] | – | – | – | ~10 mg/kg | 3.2 to 32 mg/kg | > 3.2 mg/kg | – |
| c1ccc(N2c3ccccc3[C@H]3CNCC[C@@H]32)cc1 (relative stereo) [R = H, dl-trans-5-Phenyl-2,3,4,4a,5,9b-hexahydro-1H-pyrido[4,3-b]indole, reference compound] | – | – | – | – | – | – | ED50 (Amphetamine Stereotypy; sc, 1 h, read-out: ED50, 1 Hr.): 3.2 to 32 mg/kg; ED50 (Amphetamine Stereotypy; sc, 5 h, read-out: ED50, 5 Hr.): > 3.2 mg/kg; ED50 (Amphetamine Stereotypy; sc, 24 h, read-out: ED50, 24 Hrs.): > 32 mg/kg |
| OC(CCCN1CC[C@H]2[C@@H](C1)c1ccccc1N2c1ccccc1)c1ccc(F)cc1 (relative stereo) [corresponding 4a, 9bcis analog, reference compound] | – | – | – | 56 mg/kg | – | – | – |
| OC(CCCN1CC[C@H]2[C@H](C1)c1cc(F)ccc1N2c1ccc(F)cc1)c1ccc(F)cc1 (relative stereo) [drawing 37, dl-trans-8-Fluoro-5-(p-fluorophenyl)-2-[4-hydroxy-4-(p-fluorophenyl)butyl]-2,3,4,4a,5,9b-hexahydro-1H-pyrido[4,3-b]indole hydrochloride] | 0.032 to 0.1 mg/kg | 0.032 to 0.1 mg/kg | 0.032 to 0.1 mg/kg | 0.032 to 0.1 mg/kg | 0.032 to 0.1 mg/kg | 0.032 to 0.1 mg/kg | ED50 (Amphetamine Stereotypy; ip, 48 h, i.p., Part B, read-out: ED50, 48 Hrs.): 0.1 to 0.32 mg/kg; ED50 (Amphetamine Stereotypy; [7]): 0.32 to 1 mg/kg; ED50 (Amphetamine Stereotypy; [8]): 0.1 to 0.32 mg/kg; ED50 (Amphetamine Stereotypy; [9]): 0.1 to 0.32 mg/kg |
| OC(CCCN1CC[C@@H]2[C@@H](C1)c1cc(F)ccc1N2c1ccccc1F)c1ccc(F)cc1 (relative stereo) [trans-8-fluoro-5-(o-fluorophenyl)-2-[4-hydroxy-4-(p-fluorophenyl)butyl]-2,3,4,4a,5,9b-hexahydro-1H-pyrido[4,3-b]indole] | 0.1 to 0.32 mg/kg | ~0.1 mg/kg | ~0.1 mg/kg | < 0.32 mg/kg | < 0.32 mg/kg | < 0.32 mg/kg | ED50 (Amphetamine Stereotypy; [7]): < 1 mg/kg; ED50 (Amphetamine Stereotypy; [8]): < 1 mg/kg; ED50 (Amphetamine Stereotypy; [9]): < 1 mg/kg |
| OC(CCCN1CC[C@H]2[C@H](C1)c1cc(F)ccc1N2c1ccc(F)cc1)c1ccc(F)cc1 (relative stereo) [αβγδ, dl-trans-8-Fluoro-5-(p-fluorophenyl)-2-[4-hydroxy-4-(p-fluorophenyl)butyl]-2,3,4,4a,5,9b-hexahydro-1H-pyrido[4,3-b]indole hydrochloride] | – | – | – | – | – | – | IC50 (dopamine receptors): 21 nM; ED50 (Amphetamine Stereotypy; [10]): 0.032 to 0.1 mg/kg; ED50 (Amphetamine Stereotypy; [11]): 0.032 to 0.1 mg/kg; ED50 (Amphetamine Stereotypy; [12]): 0.032 to 0.1 mg/kg |
| Cl.OC(CCCN1CC[C@@H]2[C@@H](C1)c1cc(F)ccc1N2c1ccc(F)cc1)c1ccc(F)cc1 (single isomer, unassigned) [α, trans 8-fluoro-5-(p-fluorophenyl)-2-[4-hydroxy-4(p-fluorophenyl)butyl]-2,3,4,4a,5,9b-hexahydro-1H-pyrido[4,3-b]indole hydrochloride] | – | – | – | – | – | – | ED50, 5 Hrs. (Amphetamine Stereotypy; 5 hrs, s.c., Part C, isomers of Examples 13 and 14, hydrochloride, 300 min): 32-100 micrograms/kilograms; ED50, 24 Hrs. (Amphetamine Stereotypy; [13]): 32-100 micrograms/kilograms; ED50, 48 Hrs. (Amphetamine Stereotypy; [14]): ca. 1 mg./kg.; ED50, 72 Hrs. (Amphetamine Stereotypy; [14]): > 10 mg/kg |
| Cl.OC(CCCN1CCC2C(C1)c1cc(F)ccc1N2c1ccc(F)cc1)c1ccc(F)cc1 (single isomer, unassigned) [β, 8-fluoro-5-(p-fluorophenyl)-2-[4-hydroxy-4-(p-fluorophenyl)butyl]-2,3,4,4a,5,9b-hexahydro-1H-pyrido[4,3-b]indole hydrochloride] | – | – | – | – | – | – | ED50 (Amphetamine Stereotypy; [10]): > 1 mg/kg; ED50 (Amphetamine Stereotypy; sc, 1 h, s.c., Part D, enantiomers by synthesis of Example 21, read-out: ED50, 1 Hr.): > 10 mg/kg; ED50 (Amphetamine Stereotypy; [11]): > 1 mg/kg; ED50 (Amphetamine Stereotypy; sc, 5 h, s.c., Part D, enantiomers by synthesis of Example 21, read-out: ED50, 5 Hrs.): 5.7 mg/kg; ED50 (Amphetamine Stereotypy; [12]): > 1 mg/kg; ED50 (Amphetamine Stereotypy; sc, 24 h, s.c., Part D, enantiomers by synthesis of Example 21, read-out: ED50, 24 Hrs.): > 10 mg/kg; ED50 (Amphetamine Stereotypy; sc, 48 h, s.c., Part D, enantiomers by synthesis of Example 21, read-out: ED50, 48 Hrs.): > 10 mg/kg; ED50 (Amphetamine Stereotypy; sc, 72 h, s.c., Part D, enantiomers by synthesis of Example 21, read-out: ED50, 72 Hrs.): > 10 mg/kg |
| OC(CCCN1CC[C@@H]2[C@@H](C1)c1cc(F)ccc1N2c1ccc(F)cc1)c1ccc(F)cc1 (single isomer, unassigned) [γ, trans 8-fluoro-5-(p-fluorophenyl)-2-[4-hydroxy-4(p-fluorophenyl)butyl]-2,3,4,4a,5,9b-hexahydro-1H-pyrido[4,3-b]indole hydrochloride] | – | – | – | – | – | – | IC50 (dopamine receptors): 25 nM; ED50, 24 Hrs. (Amphetamine Stereotypy; [13]): 32-100 micrograms/kilograms; ED50, 48 Hrs. (Amphetamine Stereotypy; [14]): ca. 1 mg./kg.; ED50, 72 Hrs. (Amphetamine Stereotypy; [14]): > 1 mg/kg |
| CN1CCN(CC/C=C2/c3ccccc3Sc3ccc(S(=O)(=O)N(C)C)cc32)CC1 [Navane, cis-9-[3-(4-Methyl-1-piperazinyl)propylidene]-2-(dimethylsulfonamido)thioanthene, reference compound] | – | – | – | – | – | – | ED50 (Amphetamine Stereotypy; po, 1 h, po, Part A, read-out: ED50, 1 Hr.): 0.32 to 1 mg/kg; ED50 (Amphetamine Stereotypy; po, 5 h, po, Part A, read-out: ED50, 5 Hr.): > 10 mg/kg; ED50 (Amphetamine Stereotypy; po, 24 h, po, Part A, read-out: ED50, 24 Hrs.): > 32 mg/kg |
| OC(CCCN1CCc2c(c3ccccc3n2-c2ccccc2)C1)c1ccccc1 (stereo not drawn) [drawing 40 (a), reference compound] | 3.2 to 10 mg/kg | 3.2 to 10 mg/kg | > 10 mg/kg | – | – | – | – |
| OC(CCCN1CCc2c(c3cc(F)ccc3n2-c2ccc(F)cc2)C1)c1ccc(F)cc1 (stereo not drawn) [drawing 41 (a), 8-Fluoro-5-(p-fluorophenyl)-2-[4-(p-fluorophenyl)-4-hydroxybutyl]-1,2,3,4-tetrahydro-γ-carboline hydrochloride, reference compound] | 0.1 to 0.32 mg/kg | 0.1 to 3.2 mg/kg | 1 to 3.2 mg/kg | – | – | – | ED50 (Amphetamine Stereotypy; [7]): 1 to 3.2 mg/kg; ED50 (Amphetamine Stereotypy; [8]): 0.32 to 1 mg/kg; ED50 (Amphetamine Stereotypy; [9]): 1 to 3.2 mg/kg |
| O=C(CCCN1CCc2c(c3cc(F)ccc3n2-c2ccc(F)cc2)C1)c1ccc(F)cc1 [drawing 42 (a), reference compound] | 3.2 to 10 mg/kg | > 10 mg/kg | – | – | – | – | – |
| OC(CCCN1CCc2c(c3cc(F)ccc3n2-c2ccccc2F)C1)c1ccc(F)cc1 (stereo not drawn) [drawing 43 (a), reference compound] | 0.32 to 1 mg/kg | 1 to 3.2 mg/kg | > 10 mg/kg | – | – | – | – |
